Assay results from ChEMBL document CHEMBL4184109, “Design, synthesis, and structure-activity relationship studies of novel tetrazole antifungal agents with potent activity, broad antifungal spectrum and high selectivity” (Bioorg Med Chem Lett, 2018).
In brackets after ≈: the same amount, converted by molar mass.

Key:
Format in all cases: functional
Candida albicans [1] = assay: Antifungal activity against Candida albicans Y0109 after 24 hrs by serial dilution method; details: Y0109, 24 h
Candida albicans [2] = assay: Antifungal activity against Candida albicans SC5314 after 24 hrs by serial dilution method; details: SC5314, 24 h
Candida parapsilosis = assay: Antifungal activity against Candida parapsilosis ATCC 22019 after 24 hrs by serial dilution method; details: Lodderomyces parapsilosis, ATCC 22019, 24 h
Nakaseomyces glabratus = assay: Antifungal activity against Candida glabrata after 24 hrs by serial dilution method
Cryptococcus neoformans = assay: Antifungal activity against Cryptococcus neoformans after 72 hrs by serial dilution method
Aspergillus fumigatus = assay: Antifungal activity against Aspergillus fumigatus after 48 hrs by serial dilution method

MIC80 (Candida albicans [1]) [mg/L]	MIC80 (Candida albicans [2]) [mg/L]	MIC80 (Candida parapsilosis) [mg/L]	MIC80 (Nakaseomyces glabratus) [mg/L]	MIC80 (Cryptococcus neoformans) [mg/L]	MIC80 (Aspergillus fumigatus) [mg/L]	Structure (SMILES)
1 (≈ 1.67 µM)	1 (≈ 1.67 µM)	2 (≈ 3.33 µM)	2 (≈ 3.33 µM)	0.5 (≈ 0.833 µM)	> 64	COCCOc1ccc(Cn2ncn(-c3ccc(C(F)(F)C(O)(Cn4cnnn4)c4ccc(F)cc4F)nc3)c2=O)cc1 (stereo unspecified)
1 (≈ 1.81 µM)	2 (≈ 3.63 µM)	0.5 (≈ 0.907 µM)	4 (≈ 7.25 µM)	4 (≈ 7.25 µM)	> 8	N#Cc1ccc(Cn2ncn(-c3ccc(C(F)(F)C(O)(Cn4cnnn4)c4ccc(F)cc4F)nc3)c2=O)cc1 (stereo unspecified)
4 (≈ 7.58 µM)	4 (≈ 7.58 µM)	8 (≈ 15.2 µM)	4 (≈ 7.58 µM)	2 (≈ 3.79 µM)	> 64	O=c1n(-c2ccc(C(F)(F)C(O)(Cn3cnnn3)c3ccc(F)cc3F)nc2)cnn1Cc1ccncc1 (stereo unspecified)
1 (≈ 1.64 µM)	1 (≈ 1.64 µM)	0.5 (≈ 0.819 µM)	4 (≈ 6.55 µM)	2 (≈ 3.28 µM)	> 8	O=c1n(-c2ccc(C(F)(F)C(O)(Cn3cnnn3)c3ccc(F)cc3F)nc2)cnn1Cc1ccc(OC(F)(F)F)cc1 (stereo unspecified)
> 64	> 64	> 64	> 64	> 64	> 64	CS(=O)(=O)c1ccc(Cn2ncn(-c3ccc(C(F)(F)C(O)(Cn4cnnn4)c4ccc(F)cc4F)nc3)c2=O)cc1 (stereo unspecified)
4 (≈ 7.51 µM)	> 8	2 (≈ 3.76 µM)	> 8	> 8	> 8	O=C1CCCCC1n1ncn(-c2ccc(C(F)(F)C(O)(Cn3cnnn3)c3ccc(F)cc3F)nc2)c1=O (stereo unspecified)
1 (≈ 1.78 µM)	1 (≈ 1.78 µM)	0.5 (≈ 0.891 µM)	2 (≈ 3.57 µM)	1 (≈ 1.78 µM)	> 8	O=c1n(-c2ccc(C(F)(F)C(O)(Cn3cnnn3)c3ccc(F)cc3F)nc2)cnn1Cc1ccc(Cl)cc1 (stereo unspecified)
1 (≈ 1.84 µM)	0.5 (≈ 0.918 µM)	0.25 (≈ 0.459 µM)	2 (≈ 3.67 µM)	2 (≈ 3.67 µM)	> 8	O=c1n(-c2ccc(C(F)(F)C(O)(Cn3cnnn3)c3ccc(F)cc3F)nc2)cnn1Cc1ccc(F)cc1 (stereo unspecified)
1 (≈ 1.68 µM)	2 (≈ 3.36 µM)	0.5 (≈ 0.841 µM)	4 (≈ 6.73 µM)	4 (≈ 6.73 µM)	> 8	O=c1n(-c2ccc(C(F)(F)C(O)(Cn3cnnn3)c3ccc(F)cc3F)nc2)cnn1Cc1ccc(C(F)(F)F)cc1 (stereo unspecified)
4 (≈ 7.58 µM)	8 (≈ 15.2 µM)	8 (≈ 15.2 µM)	4 (≈ 7.58 µM)	2 (≈ 3.79 µM)	> 64	O=c1n(-c2ccc(C(F)(F)C(O)(Cn3cnnn3)c3ccc(F)cc3F)nc2)cnn1Cc1cccnc1 (stereo unspecified)
0.5 (≈ 1.02 µM)	0.5 (≈ 1.02 µM)	0.25 (≈ 0.51 µM)	4 (≈ 8.16 µM)	4 (≈ 8.16 µM)	> 8	O=c1n(-c2ccc(C(F)(F)C(O)(Cn3cnnn3)c3ccc(F)cc3F)nc2)cnn1CC1CC1 (stereo unspecified)
1 (≈ 1.9 µM)	0.5 (≈ 0.95 µM)	0.25 (≈ 0.475 µM)	4 (≈ 7.6 µM)	4 (≈ 7.6 µM)	> 8	O=c1n(-c2ccc(C(F)(F)C(O)(Cn3cnnn3)c3ccc(F)cc3F)nc2)cnn1Cc1ccccc1 (stereo unspecified)
0.5 (≈ 0.899 µM)	0.5 (≈ 0.899 µM)	0.25 (≈ 0.449 µM)	2 (≈ 3.59 µM)	2 (≈ 3.59 µM)	> 8	COc1ccc(Cn2ncn(-c3ccc(C(F)(F)C(O)(Cn4cnnn4)c4ccc(F)cc4F)nc3)c2=O)cc1 (stereo unspecified)
4 (≈ 6.99 µM)	4 (≈ 6.99 µM)	4 (≈ 6.99 µM)	4 (≈ 6.99 µM)	2 (≈ 3.49 µM)	> 64	CSc1ccc(Cn2ncn(-c3ccc(C(F)(F)C(O)(Cn4cnnn4)c4ccc(F)cc4F)nc3)c2=O)cc1 (stereo unspecified)
1 (≈ 1.85 µM)	1 (≈ 1.85 µM)	0.25 (≈ 0.463 µM)	2 (≈ 3.7 µM)	2 (≈ 3.7 µM)	> 8	Cc1ccc(Cn2ncn(-c3ccc(C(F)(F)C(O)(Cn4cnnn4)c4ccc(F)cc4F)nc3)c2=O)cc1 (stereo unspecified)
4 (≈ 7.58 µM)	2 (≈ 3.79 µM)	16 (≈ 30.3 µM)	2 (≈ 3.79 µM)	1 (≈ 1.9 µM)	> 64	O=c1n(-c2ccc(C(F)(F)C(O)(Cn3cnnn3)c3ccc(F)cc3F)nc2)cnn1Cc1ccccn1 (stereo unspecified)
